Results reported in ChEMBL document CHEMBL3397028, “Synthesis and antimicrobial activity of novel benzoxazine sulfonamide derivatives” (2015).
In brackets after ≈: the same amount, converted by molar mass.

Tests used:
Assay type in all cases: functional
Priestia megaterium = experiment: Antimicrobial activity against Bacillus megaterium MTCC 3382 after 18 hrs by broth micro dilution method; conditions: MTCC 3382, 18 h
Escherichia coli = experiment: Antimicrobial activity against Escherichia coli MTCC 1089 after 18 hrs by broth micro dilution method; conditions: MTCC 1089, 18 h
Xanthomonas campestris = experiment: Antimicrobial activity against Xanthomonas campestris after 18 hrs by broth micro dilution method
Candida albicans = experiment: Antimicrobial activity against Candida albicans MTCC 183 after 48 to 72 hrs by broth micro dilution method
Pseudomonas aeruginosa = experiment: Antimicrobial activity against Pseudomonas aeruginosa MTCC 1034 after 18 hrs by broth micro dilution method; conditions: MTCC 1034, 18 h

Structure (SMILES) | MIC (Priestia megaterium) [µg/mL] | MIC (Escherichia coli) [µg/mL] | MIC (Xanthomonas campestris) [µg/mL] | MIC (Candida albicans) [µg/mL] | MIC (Pseudomonas aeruginosa) [µg/mL]
O=C1COc2ccc(S(=O)(=O)NCCCN3CCN(c4ccccc4)CC3)cc2N1 | 250 (≈ 581 µM) | 500 (≈ 1160 µM) | 500 (≈ 1160 µM) | 500 (≈ 1160 µM) | 500 (≈ 1160 µM)
O=C1COc2ccc(S(=O)(=O)NCCCN3CCN(c4ccc(C(F)(F)F)cc4)CC3)cc2N1 | 62.5 (≈ 125 µM) | 500 (≈ 1000 µM) | 125 (≈ 251 µM) | 125 (≈ 251 µM) | 125 (≈ 251 µM)
COc1ccccc1N1CCN(CCCNS(=O)(=O)c2ccc3c(c2)NC(=O)CO3)CC1 | 31.2 (≈ 67.9 µM) | 250 (≈ 543 µM) | 125 (≈ 271 µM) | 62.5 (≈ 136 µM) | 125 (≈ 271 µM)
O=C1COc2ccc(S(=O)(=O)NCCCN3CCN(c4ccccc4F)CC3)cc2N1 | 31.2 (≈ 69.7 µM) | 125 (≈ 279 µM) | 62.5 (≈ 139 µM) | 125 (≈ 279 µM) | 62.5 (≈ 139 µM)
O=C1COc2ccc(S(=O)(=O)NCCCN3CCN(c4ccc(F)cc4)CC3)cc2N1 | 250 (≈ 557 µM) | 500 (≈ 1110 µM) | 125 (≈ 279 µM) | 250 (≈ 557 µM) | 62.5 (≈ 139 µM)
Cc1cc2c(cc1S(=O)(=O)NCCCN1CCN(c3ccc(C(F)(F)F)cc3)CC1)NC(=O)CO2 | 62.5 (≈ 122 µM) | 250 (≈ 488 µM) | 62.5 (≈ 122 µM) | 125 (≈ 244 µM) | 250 (≈ 488 µM)
COc1ccccc1N1CCN(CCCNS(=O)(=O)c2cc3c(cc2C)OCC(=O)N3)CC1 | 250 (≈ 527 µM) | 500 (≈ 1050 µM) | 500 (≈ 1050 µM) | 250 (≈ 527 µM) | 500 (≈ 1050 µM)
Cc1cc2c(cc1S(=O)(=O)NCCCN1CCN(c3ccccc3F)CC1)NC(=O)CO2 | 250 (≈ 540 µM) | 250 (≈ 540 µM) | 250 (≈ 540 µM) | 250 (≈ 540 µM) | 250 (≈ 540 µM)
Cc1cc2c(cc1S(=O)(=O)NCCCN1CCN(c3ccccc3)CC1)NC(=O)CO2 | 250 (≈ 562 µM) | 250 (≈ 562 µM) | 250 (≈ 562 µM) | 250 (≈ 562 µM) | 250 (≈ 562 µM)
Cc1cc2c(cc1S(=O)(=O)NCCCN1CCSCC1)NC(=O)CO2 | 125 (≈ 324 µM) | 500 (≈ 1300 µM) | 250 (≈ 648 µM) | 250 (≈ 648 µM) | 500 (≈ 1300 µM)
Cc1cc2c(cc1S(=O)(=O)N1CCN(c3ccc(C(F)(F)F)cc3)CC1)N(CC(=O)c1ccc(-c3ccccc3)cc1)C(=O)CO2 | 125 (≈ 192 µM) | 250 (≈ 385 µM) | 125 (≈ 192 µM) | 125 (≈ 192 µM) | 125 (≈ 192 µM)
Cc1cc2c(cc1S(=O)(=O)N1CCN(c3ccc(C(F)(F)F)cc3)CC1)N(CC(=O)c1ccccc1)C(=O)CO2 | 250 (≈ 436 µM) | 250 (≈ 436 µM) | 250 (≈ 436 µM) | 250 (≈ 436 µM) | 250 (≈ 436 µM)
Cc1ccc(C(=O)CN2C(=O)COc3cc(C)c(S(=O)(=O)N4CCN(c5ccc(C(F)(F)F)cc5)CC4)cc32)cc1 | 125 (≈ 213 µM) | 62.5 (≈ 106 µM) | 125 (≈ 213 µM) | 250 (≈ 425 µM) | 31.2 (≈ 53.2 µM)
Cc1cc2c(cc1S(=O)(=O)N1CCN(c3ccc(C(F)(F)F)cc3)CC1)N(CC(=O)c1ccc([N+](=O)[O-])cc1)C(=O)CO2 | 31.2 (≈ 50.5 µM) | 62.5 (≈ 101 µM) | 125 (≈ 202 µM) | 31.2 (≈ 50.5 µM) | 31.2 (≈ 50.5 µM)
COc1ccc(C(=O)CN2C(=O)COc3cc(C)c(S(=O)(=O)N4CCN(c5ccc(C(F)(F)F)cc5)CC4)cc32)cc1 | 62.5 (≈ 104 µM) | 250 (≈ 414 µM) | 250 (≈ 414 µM) | 250 (≈ 414 µM) | 125 (≈ 207 µM)
Cc1cc2c(cc1S(=O)(=O)N1CCN(c3ccc(C(F)(F)F)cc3)CC1)N(CC(=O)c1ccc(Cl)cc1)C(=O)CO2 | 250 (≈ 411 µM) | 500 (≈ 822 µM) | 500 (≈ 822 µM) | 500 (≈ 822 µM) | 500 (≈ 822 µM)
Cc1cc2c(cc1S(=O)(=O)N1CCN(c3ccc(C(F)(F)F)cc3)CC1)N(CC(=O)c1cccs1)C(=O)CO2 | 31.2 (≈ 53.9 µM) | 125 (≈ 216 µM) | 125 (≈ 216 µM) | 31.2 (≈ 53.9 µM) | 31.2 (≈ 53.9 µM)
COc1ccccc1N1CCN(S(=O)(=O)c2cc3c(cc2C)OCC(=O)N3CC(=O)c2ccc(-c3ccccc3)cc2)CC1 | 62.5 (≈ 102 µM) | 500 (≈ 817 µM) | 125 (≈ 204 µM) | 500 (≈ 817 µM) | 250 (≈ 409 µM)
COc1ccccc1N1CCN(S(=O)(=O)c2cc3c(cc2C)OCC(=O)N3CC(=O)c2ccccc2)CC1 | 62.5 (≈ 117 µM) | 125 (≈ 233 µM) | 62.5 (≈ 117 µM) | 62.5 (≈ 117 µM) | 125 (≈ 233 µM)
COc1ccccc1N1CCN(S(=O)(=O)c2cc3c(cc2C)OCC(=O)N3CC(=O)c2ccc(C)cc2)CC1 | 125 (≈ 227 µM) | 62.5 (≈ 114 µM) | 125 (≈ 227 µM) | 62.5 (≈ 114 µM) | 62.5 (≈ 114 µM)
COc1ccccc1N1CCN(S(=O)(=O)c2cc3c(cc2C)OCC(=O)N3CC(=O)c2ccc([N+](=O)[O-])cc2)CC1 | 62.5 (≈ 108 µM) | 250 (≈ 431 µM) | 125 (≈ 215 µM) | 250 (≈ 431 µM) | 250 (≈ 431 µM)
COc1ccc(C(=O)CN2C(=O)COc3cc(C)c(S(=O)(=O)N4CCN(c5ccccc5OC)CC4)cc32)cc1 | 31.2 (≈ 55.2 µM) | 62.5 (≈ 110 µM) | 62.5 (≈ 110 µM) | 31.2 (≈ 55.2 µM) | 31.2 (≈ 55.2 µM)
COc1ccccc1N1CCN(S(=O)(=O)c2cc3c(cc2C)OCC(=O)N3CC(=O)c2ccc(Cl)cc2)CC1 | 250 (≈ 439 µM) | 250 (≈ 439 µM) | 125 (≈ 219 µM) | 250 (≈ 439 µM) | 250 (≈ 439 µM)
COc1ccccc1N1CCN(S(=O)(=O)c2cc3c(cc2C)OCC(=O)N3CC(=O)c2cccs2)CC1 | 500 (≈ 923 µM) | 250 (≈ 462 µM) | 250 (≈ 462 µM) | 250 (≈ 462 µM) | 250 (≈ 462 µM)
Cc1cc2c(cc1S(=O)(=O)N1CCN(c3ccc(C(F)(F)F)cc3)CC1)NC(=O)CO2 | 250 (≈ 549 µM) | 500 (≈ 1100 µM) | 500 (≈ 1100 µM) | 500 (≈ 1100 µM) | 250 (≈ 549 µM)
COc1ccccc1N1CCN(S(=O)(=O)c2cc3c(cc2C)OCC(=O)N3)CC1 | 250 (≈ 599 µM) | 500 (≈ 1200 µM) | 500 (≈ 1200 µM) | 500 (≈ 1200 µM) | 500 (≈ 1200 µM)
OC(Cn1cncn1)(Cn1cncn1)c1ccc(F)cc1F [FLUCONAZOLE] | – | – | – | 32 (≈ 104 µM) | –
CO[C@H]1/C=C/O[C@@]2(C)Oc3c(C)c(O)c4c(O)c(c(/C=N/N5CCN(C)CC5)c(O)c4c3C2=O)NC(=O)/C(C)=C\C=C\[C@H](C)[C@H](O)[C@@H](C)[C@@H](O)[C@@H](C)[C@H](OC(C)=O)[C@@H]1C [RIFAMPIN] | 64 (≈ 77.8 µM) | 64 (≈ 77.8 µM) | 32 (≈ 38.9 µM) | – | 32 (≈ 38.9 µM)
